Assay results taken from patent US20070207175A1, “Biaromatic compound activators of PPARgamma receptors and cosmetic/pharmaceutical compositions comprised thereof” (GALDERMA RESEARCH & DEVELOPMENT, priority 2004, published 2007).

What was measured:
Type in all cases: cell-based
[1] = target: T1, PPARγ (Homo sapiens, UniProt P37231); test: Crossed-curve PPAR transactivation assay (PPARγ); settings: HeLN cells stably transfected with Gal-hPPARγ and luciferase reporter; Schild regression against reference agonist; n.a. means not active; read-out: PPARγ Kdapp
T1 sequence (P37231 238-505 limits assumed): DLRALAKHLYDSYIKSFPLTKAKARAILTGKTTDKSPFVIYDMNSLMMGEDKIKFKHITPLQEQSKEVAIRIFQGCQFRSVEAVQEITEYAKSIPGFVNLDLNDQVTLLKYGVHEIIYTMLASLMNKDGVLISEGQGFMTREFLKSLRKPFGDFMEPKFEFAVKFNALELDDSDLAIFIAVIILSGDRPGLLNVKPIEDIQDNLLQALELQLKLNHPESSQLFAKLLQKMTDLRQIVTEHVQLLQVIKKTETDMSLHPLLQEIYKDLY
Procedure: (§1) Activation of the PPAR receptors by an agonist (activator) in HeLN cells leads to the expression of a reporter gene, luciferase, which, in the presence of a substrate, generates light. The modulation of the PPAR receptors is measured by quantifying the luminescence produced after incubation of the cells in the presence of a reference agonist. The ligands will displace the agonist from its site. The measurement of the activity is performed by quantifying the light produced. This measurement makes it possible to determine the modulatory activity of the compounds according to the invention by the determination of the constant which is the affinity of the molecule for the PPAR receptor. Since this value can fluctuate depending on the basal activity and the expression of the receptor, it is referred to as apparent Kd (Kdapp in nM).
(§2) To determine this constant, “crossed curves” for the test product, against a reference agonist, are prepared using a 96-well plate: 10 concentrations of the test product plus a concentration 0 are arranged in a line, and 7 concentrations of the agonist plus a concentration 0 are arranged in a column. This is 88 measurement points for 1 product and 1 receptor. The remaining 8 wells are used for repeatability controls.
(§3) Measurements are also taken for total agonist controls with the same products.
(§4) The HeLN cell lines used are stable transfectants containing the plasmids ERE-βGlob-Luc-SV-Neo (reporter gene) and PPAR (α, δ, γ) Gal-hPPAR. These cells are seeded in 96-well plates at the rate of 10,000 cells per well in 100 μl of DMEM medium without phenol red and supplemented with 10% of defatted calf serum. The plates are then incubated for 16 hours at 37° C. and 7% CO2.
(§5) The various dilutions of the test products and of the reference ligand are added at the rate of 5 μl per well. The plates are subsequently incubated for 18 hours at 37° C. and 7% CO2. The culture medium is removed by turning over and 100 μl of a 1:1 PBS/luciferin mixture are added to each well. After 5 minutes, the plates are read using the luminescence reader.

[2] = target: T2, PPARα (Homo sapiens, UniProt Q07869); test: Crossed-curve PPAR transactivation assay (PPARα); settings: HeLN cells stably transfected with Gal-hPPARα and luciferase reporter; Schild regression against reference agonist; n.a. means not active; read-out: PPARα Kdapp
T2 sequence (Q07869 200-468 limits assumed): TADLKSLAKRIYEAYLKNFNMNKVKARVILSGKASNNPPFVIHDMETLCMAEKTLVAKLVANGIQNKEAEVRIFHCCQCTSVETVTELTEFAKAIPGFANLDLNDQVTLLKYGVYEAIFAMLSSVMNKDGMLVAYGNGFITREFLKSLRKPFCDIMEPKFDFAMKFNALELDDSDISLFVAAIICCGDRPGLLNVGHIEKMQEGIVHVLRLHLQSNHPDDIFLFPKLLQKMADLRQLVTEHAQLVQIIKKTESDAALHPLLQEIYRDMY
Procedure: as §1
To determine this constant, “crossed curves” for the test product, against a reference agonist, are prepared using a 96-well plate: 10 concentrations of the test product plus a concentration 0 are arranged in a line, and 7 concentrations of the agonist plus a concentration 0 are arranged in a column. This is 88 measurement points for 1 product and 1 receptor. […]
The various dilutions of the test products and of the reference ligand are added at the rate of 5 μl per well. […] After 5 minutes, the plates are read using the luminescence reader.

[3] = target: T3, PPARδ (Homo sapiens, UniProt Q03181); test: Crossed-curve PPAR transactivation assay (PPARδ); settings: HeLN cells stably transfected with Gal-hPPARδ and luciferase reporter; Schild regression against reference agonist; n.a. means not active; read-out: PPARδ Kdapp
T3 sequence (Q03181 211-441 limits assumed): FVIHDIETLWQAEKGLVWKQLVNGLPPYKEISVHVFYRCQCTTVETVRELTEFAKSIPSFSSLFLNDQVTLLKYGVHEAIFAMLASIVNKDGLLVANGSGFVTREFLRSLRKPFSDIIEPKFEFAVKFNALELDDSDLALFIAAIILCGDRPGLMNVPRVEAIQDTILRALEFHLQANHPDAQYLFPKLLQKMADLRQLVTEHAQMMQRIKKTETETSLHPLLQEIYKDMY
Procedure: as §1, §2, §3, §4, §5

| SMILES | Kd [1] [nM] | Kd [2] [nM] | Kd [3] [nM] |
| --- | --- | --- | --- |
| CCCCCCCC(=O)N(C)Cc1cccc(-c2ccc(/C=C/C(=O)O)cc2)c1 [Example 1, 3-(3′-[((methyl)(octanoyl)amino)methyl]biphenyl-4-yl)acrylic acid] | 500 |  |  |
| CCCCCCCC(=O)N(C)Cc1cccc(-c2ccc(CCC(=O)O)cc2)c1 [Example 2, 3-{3′-[((methyl)(octanoyl)amino)methyl]biphenyl-4-yl}propanoic acid] | 120 |  |  |
| CCCCCCCC(=O)N(C)Cc1cccc(-c2ccc(/C=C/C(=O)O)c(F)c2)c1 [Example 3, 3-{3-fluoro-3′-[((methyl)(octanoyl)amino)methyl]biphenyl-4-yl}acrylic acid] | 60 |  |  |
| CCCCCCCC(=O)N(C)Cc1cccc(-c2ccc(CCC(=O)O)c(F)c2)c1 [Example 4, 3-[3-fluoro-3′-[((methyl)(octanoyl)amino)methyl]biphenyl-4-yl)propanoic acid] | 250 |  |  |
| CCCCCCCC(=O)NCc1cccc(-c2ccc(CCC(=O)O)cc2)c1 [Example 6, 3-[3′-((octanoylamino)methyl)biphenyl-4-yl]propanoic acid] | 4000 |  |  |
| CCCCCCCC(=O)N(C)Cc1cccc(-c2ccc(CCC(=O)O)c(O)c2)c1 [Example 7, 3-{3-hydroxy-3′-[((methyl)(octanoyl)amino)methyl]biphenyl-4-yl}propanoic acid] | 4000 |  |  |
| CCCCCCCC(=O)N(C)Cc1cccc(-c2ccc(CCC(=O)O)cc2OCCCC)c1 [Example 8, 3-{2-butoxy-3′-[((methyl)(octanoyl)amino)methyl]biphenyl-4-yl}propanoic acid] | 1 |  |  |
| CCCCCC(=O)N(C)Cc1cccc(-c2ccc(CCC(=O)O)cc2OCCCC)c1 [Example 9, 3-{2-butoxy-3′-[((hexanoyl)(methyl)amino)methyl]biphenyl-4-yl}propanoic acid] | 4 | 4000 | 4000 |
| CCCCOc1cc(CCC(=O)O)ccc1-c1cccc(CN(C)C(=O)CCCC)c1 [Example 10, 3-{2-butoxy-3′-[((methyl)(pentanoyl)amino)methyl]biphenyl-4-yl}propanoic acid] | 4 |  | 4000 |
| CCCCCCC(=O)N(C)Cc1cccc(-c2ccc(CCC(=O)O)cc2OCCCC)c1 [Example 11, 3-{2-butoxy-3′-[((heptanoyl)(methyl)amino)methyl]biphenyl-4-yl}propanoic acid] | 1 | 500 | 4000 |
| CCCCOc1cc(CCC(=O)O)ccc1-c1cccc(CN(C)C(=O)c2ccc(OCC)cc2)c1 [Example 12, 3-(2-butoxy-3′-{[(4-ethoxybenzoyl)(methyl)amino]methyl}biphenyl-4-yl)propanoic acid] | 0.25 |  |  |
| CCCCOc1ccc(C(=O)N(C)Cc2cccc(-c3ccc(CCC(=O)O)cc3OCCCC)c2)cc1 [Example 13, 3-(2-butoxy-3′-{[(4-butoxybenzoyl)(methyl)amino]methyl}biphenyl-4-yl)propanoic acid] | 1 |  |  |
| CCCCOc1cc(CCC(=O)O)ccc1-c1cccc(CN(C)C(=O)c2ccccc2)c1 [Example 14, 3-{3′-[((benzoyl)(methyl)amino)methyl]-2-butoxybiphenyl-4-yl}propanoic acid] | 8 |  |  |
| CCCCOc1cc(CCC(=O)O)ccc1-c1cccc(CN(C)C(=O)c2ccc(OC)cc2)c1 [Example 15, 3-(2-butoxy-3′-{[(4-methoxybenzoyl)(methyl)amino]methyl}biphenyl-4-yl)propanoic acid] | 0.5 |  | 4000 |
| CCCCOc1cc(CCC(=O)O)ccc1-c1cccc(CN(C)C(=O)c2cccc(OC)c2)c1 [Example 16, 3-(2-butoxy-3′-{[(3-methoxybenzoyl)(methyl)amino]methyl}biphenyl-4-yl)propanoic acid] | 4 |  | 4000 |
